Experimental data as given in PubChem BioAssay (NCI).
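Assay format: 96-well plates, 48-hour exposure. TGI: total growth inhibition.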

Experiments:
Test in all cases: inhibition of tumour cell growth, NCI panel, 48 h
[1] = tested on: 786-0 renal
[2] = tested on: A549 NSCLC
[3] = tested on: M14 melanoma
[4] = tested on: HOP-18 NSCLC
[5] = tested on: UACC-62 melanoma
[6] = tested on: ACHN renal
[7] = tested on: CAKI-1 renal
[8] = tested on: OVCAR-3 ovarian
[9] = tested on: HCT-116 colon
[10] = tested on: KM12 colon
[11] = tested on: UO-31 renal
[12] = tested on: LOX IMVI melanoma
[13] = tested on: DMS 273 small cell lung
[14] = tested on: NCI-H23 lung
[15] = tested on: TK-10 renal
[16] = tested on: HOP-62 NSCLC
[17] = tested on: HT29 colon
[18] = tested on: M19-MEL melanoma
[19] = tested on: HCT-15 colon
[20] = tested on: DLD-1 colon
[21] = tested on: HOP-92 NSCLC
[22] = tested on: OVCAR-4 ovarian
[23] = tested on: RXF 393 renal
[24] = tested on: SN12C renal
[25] = tested on: MALME-3M melanoma
[26] = tested on: SK-OV-3 ovarian
[27] = tested on: COLO 205 colon
[28] = tested on: SF-268 CNS
[29] = tested on: XF 498 CNS
[30] = tested on: LXFL 529 NSCLC
[31] = tested on: SK-MEL-28 melanoma
[32] = tested on: NCI-H226 lung
[33] = tested on: SK-MEL-5 melanoma
[34] = tested on: EKVX NSCLC
[35] = tested on: NCI-H460 lung
[36] = tested on: DMS 114 small cell lung
[37] = tested on: SW-620 colon
[38] = tested on: CCRF-CEM leukemia
[39] = tested on: SF-539 CNS
[40] = tested on: HL-60(TB) leukemia
[41] = tested on: SF-295 CNS
[42] = tested on: SNB-19 CNS
[43] = tested on: IGROV1 ovarian
[44] = tested on: KM20L2 colon
[45] = tested on: MOLT-4 leukemia
[46] = tested on: UACC-257 melanoma
[47] = tested on: SK-MEL-2 melanoma
[48] = tested on: NCI-H522 lung
[49] = tested on: HCC-2998 colon
[50] = tested on: SR leukemia
[51] = tested on: SNB-75 CNS
[52] = tested on: OVCAR-8 ovarian
[53] = tested on: K-562 leukemia
[54] = tested on: OVCAR-5 ovarian
[55] = tested on: U251 CNS
[56] = tested on: A498 renal
[57] = tested on: RPMI-8226 leukemia
[58] = tested on: SNB-78 CNS

Measured: TGI

CC1(C2COC(=O)C2)SCCCS1 (stereo not given)
28.1 µM: [11]
10.9 µM: [48]
not listed: [53] | [54] | [55] | [56] | [57] | [58]
> 100 µM: all other assays above

NCCCC(N=Cc1nc(-c2ccccc2)oc1O)C(=O)O (stereo not given)
not listed: [4] | [7] | [10]
> 100 µM: all other assays above

CC(C)=CCC/C(C)=C/Cc1c(O)c(C)cc2c1[nH]c1cc(O)ccc12
not listed: [4] | [7] | [14] | [29] | [34] | [41] | [46] | [51] | [56]
> 25 µM: all other assays above

O=C(Nc1ccc([N+](=O)[O-])cc1[N+](=O)[O-])C(=O)C(C(=O)c1ccc(Cl)c(Cl)c1)C1OC(=O)c2ccccc21 (stereo not given)
66.7 µM: [42]
41.5 µM: [1]
45.5 µM: [52]
93.1 µM: [8]
95 µM: [38]
85 µM: [24]
93.3 µM: [58]
47.3 µM: [30]
48.4 µM: [27]
76.3 µM: [28]
39.8 µM: [14]
68.4 µM: [46]
36 µM: [5] | [32]
59.5 µM: [36]
76.8 µM: [45]
36.9 µM: [16]
76.7 µM: [19]
82 µM: [53]
71.1 µM: [17]
80.9 µM: [11]
41.4 µM: [12]
73.7 µM: [2]
82.5 µM: [26]
24.8 µM: [23]
38.4 µM: [9]
84.7 µM: [43]
44.7 µM: [48]
40.7 µM: [41]
89.7 µM: [44]
65.9 µM: [54]
37 µM: [10]
9.46 µM: [21]
54.6 µM: [37]
85.3 µM: [40]
42.4 µM: [20]
79.4 µM: [18]
68.8 µM: [56]
> 100 µM: [6] | [7] | [13] | [55] | [22] | [25] | [34] | [57] | [50] | [51]
93.7 µM: [15]
